Experimental data as given in patent US20200232974A1, “LYMPHOCYTES EXPRESSING CD73 IN CANCEROUS PATIENT DICTATES THERAPY” (Centre Léon-Bérard, priority 2016, published 2020).

Tests used:
[1] = tested on: CD73 and TIGIT expression on CD4+ and CD8+ T cells; test: Blood immune-monitoring of metastatic melanoma patients during anti-PD1 treatment (multiparametric flow cytometry); assay type: in vivo, human
Protocol: 2nd line metastatic melanoma patients treated with anti PD-1 (Nivolumab, 3 mg/kg/i.v, every 2 weeks) were subjected to blood immune-monitoring, by multiparametric flow cytometry analysis, to assess, using specific coupled mAbs against CD73 (APC) and TIGIT (PE), the modulation of expression of both ICP on CD4+ and CD8+ T cells before (inclusion, WO) and during treatment (W2, W12).

CD39 = molecular target: T1, CD39 (Homo sapiens, UniProt P49961); test: Degradation of exogenous C13N15 ATP by purified Treg, quantified by HPLC; assay type: cell-based; conditions: Treg purified from HD blood, two hours
T1 construct: Treg purified from HD blood degraded 48.24±6.20% of ATP into AMP; endogenous in cells
T1 sequence (P49961 1-510): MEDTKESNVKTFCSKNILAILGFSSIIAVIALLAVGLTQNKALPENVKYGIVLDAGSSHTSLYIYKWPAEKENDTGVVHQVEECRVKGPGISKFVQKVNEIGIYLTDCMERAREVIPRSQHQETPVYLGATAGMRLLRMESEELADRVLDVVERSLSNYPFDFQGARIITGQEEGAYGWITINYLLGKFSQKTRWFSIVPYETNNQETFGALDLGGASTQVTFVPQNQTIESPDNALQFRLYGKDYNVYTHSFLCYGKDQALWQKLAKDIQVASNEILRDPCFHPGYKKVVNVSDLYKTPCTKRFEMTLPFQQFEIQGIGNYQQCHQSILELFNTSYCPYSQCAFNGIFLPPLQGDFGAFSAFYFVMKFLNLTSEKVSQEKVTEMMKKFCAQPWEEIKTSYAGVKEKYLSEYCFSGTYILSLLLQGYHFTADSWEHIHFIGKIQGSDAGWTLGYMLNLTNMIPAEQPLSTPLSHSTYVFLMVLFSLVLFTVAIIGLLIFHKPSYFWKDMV
Protocol: FIG. 3: Breast and ovarian tumors contain highly functional CD39+ Treg and CD73+ Tconv with Th1/17 characteristics. (A) Representative expression of CD39 and CD73 analyzed on memory CD4+ Treg and Tconv from Breast (B) and ovarian (OT) by flow cytometry. Frequency of CD39+ cells (B) and Δ CD39 MFI on these cells (C) among paired Treg and Tconv were analyzed by flow cytometry among BT and OT and statistical analysis was performed by Two-way Anova analysis. (D) Purified tumor-associated Treg were assessed for ATP (37.5 μM) degradation by HPLC measurements and compared to HD-blood Treg. In some conditions 30 min pre-incubation with ARL67156 (250 μM) was used to assess the role of CD39 functional activity. (E,F) Δ CD39 MFI of CD39+ cells among Treg (E) or Tconv (F) from paired peripheral blood and BT or OT were analyzed. Statistical analysis was performed by using Two-way Anova analysis. (G) Frequency of CD73+ cells among Tconv from BT and OT was analyzed by flow cytometry. Statistical analysis was performed by using Kruskal-Wallis test.
To confirm this hypothesis, we quantified, by HPLC, the capacity of Treg to degrade ATP into Ado. To prevent interference with endogenous ATP or metabolites, these experiments were performed with exogenous C13N15 stable isotope ATP. After two hours, Treg purified from HD blood degraded 48.24±6.20% of ATP into AMP without generating neither Ado nor Inosine. […]

CD73 = molecular target: T2, CD73 (Homo sapiens, UniProt P21589); test: Hydrolysis of C13N15 AMP into Ado by CD73+ Tconv (HPLC); assay type: cell-based
T2 construct: endogenous in cells
T2 sequence (P21589 27-549): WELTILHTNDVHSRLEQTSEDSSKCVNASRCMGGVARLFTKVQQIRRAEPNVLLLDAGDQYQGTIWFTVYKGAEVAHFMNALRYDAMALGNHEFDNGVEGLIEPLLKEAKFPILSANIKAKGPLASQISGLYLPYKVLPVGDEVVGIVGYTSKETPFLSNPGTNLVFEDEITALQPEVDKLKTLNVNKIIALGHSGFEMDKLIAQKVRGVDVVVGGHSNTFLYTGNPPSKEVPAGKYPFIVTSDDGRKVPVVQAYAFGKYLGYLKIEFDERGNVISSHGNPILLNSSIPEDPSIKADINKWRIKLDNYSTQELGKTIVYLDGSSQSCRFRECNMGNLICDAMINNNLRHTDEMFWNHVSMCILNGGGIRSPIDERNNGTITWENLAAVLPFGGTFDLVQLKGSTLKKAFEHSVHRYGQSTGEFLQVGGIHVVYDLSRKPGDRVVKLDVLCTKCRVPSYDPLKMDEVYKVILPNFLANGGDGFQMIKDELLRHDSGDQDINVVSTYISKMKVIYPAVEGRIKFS
Protocol: To confirm this hypothesis, we quantified, by HPLC, the capacity of Treg to degrade ATP into Ado. To prevent interference with endogenous ATP or metabolites, these experiments were performed with exogenous C13N15 stable isotope ATP. After two hours, Treg purified from HD blood degraded 48.24±6.20% of ATP into AMP without generating neither Ado nor Inosine. […] Moreover, we confirmed that CD73^+ and CD73^neg Tconv were not able to degrade C13N15 ATP.
Using this technique, we confirmed the enzymatic functionality of CD73 on Tconv. Only CD73^+ Tconv were capable of hydrolyzing C13N15 AMP into Ado and this was reversed by addition of a specific CD73 inhibitor (AMPCP).

CD73+ or CD73neg Tconv [2] = test: 4 days' proliferation of purified CD73+ or CD73neg Tconv with anti-CD3/anti-CD28 beads; assay type: cell-based, human
Protocol: Addition of recombinant ADA (rhADA, 1 μg/ml), inducing degradation of Ado into Ino restored both T cell subsets proliferation confirming the immunosuppressive impact of Ado.

CD73+ Tconv = test: Co-culture of Treg with CD73+ or CD73neg Tconv, with or without exogenous ATP: proliferation (CTV dilution); assay type: cell-based, human; conditions: Treg:Tconv ratio 1/1; round-bottomed wells; anti-CD3/anti-CD28 beads
Description: To analyze the biological impact of Ado generation by cooperation between CD39^+ Treg and CD73^+ Tconv, we co-cultured Treg labeled with proliferation marker CFSE in presence of CD73^+ or CD73^neg Tconv labeled with Cell Trace Violet (CTV) at a ratio 1/1 in presence or absence of exogenous ATP in round-bottomed wells with compact cell density in presence of anti-CD3/anti-CD28 beads. […] In contrast, CTV-labeled CD73^+ or CD73^neg proliferation that was not altered by the addition of Treg due to the strong activation. […] To mimic physiological conditions, Treg, CD73^+ and CD73^neg Tconv subsets were mixed together at physiological ratio (10%/20%/70%) observed in blood. ATP induced inhibition of the bulk proliferation which can be rescued by the combined addition of CD39 and CD73 inhibitors. The proliferation of each subset was analyzed by specific proliferation markers (CFSE and CTV alone or in combination).

CD73+ or CD73neg Tconv [3] = test: Cytokine secretion of purified Tconv subsets after 2 days of anti-CD3/anti-CD28 bead activation; assay type: cell-based, human; conditions: 2 days of activation; addition of Ado
Protocol: Moreover, the impact of Ado and AMP on cytokine secretion capacity was analyzed on both purified Tconv subsets. To avoid a confounding effect of Ado and AMP on proliferation in this analysis we analyzed cytokine secretion after 2 days of activation with anti-CD3/anti-CD28 beads which was determined as the maximal length of activation without induction of any proliferation (CFSE dilution). First, we confirmed that CD73^+ Tconv produced more IL-2, TNF-α, IFN-γ, IL-17A, IL-22, GM-CSF and IL-3 but less IL-10, IL-13 and IL-21 than CD73^neg in this activation setting. As shown previously for the proliferation, the secretion of the cytokines produced by CD73^+ or CD73^neg Tconv was inhibited by the addition of Ado.

in vitro = conditions: human
Protocol: (§1) Memory CD4^+ Tconv purified from healthy donor PBMC were used. Purified 10^5 CD4^+ Tconv were cultured in 96-round bottomed wells in complete RPMI medium for 48 h in presence of a strong TCR stimulation (expand beads, ratio bead:cell 1:8)+IL-2 (50UI/ml) in absence (medium condition) or in presence of graded doses of Taxol (0.01; 0.1; 1 μM). Viability was analyzed by multiparametric flow cytometry on different cell subsets according to their expression of CD73 and MDR1 (CD73 MDR1, CD73^+MDR1^neg, CD73^negMDR1^+, CD73^negMDR1^neg). Survival was analyzed by multiparametric flow cytometry using Annexin-V and DAPI stainings (both from Becton Dickinson) according to CD73 and MDR1 expression. % of viable cells (Annexin V^neg DAPI^neg) was compared according to the cell subset analyzed.
(§2) Their survival was analyzed by multiparametric flow cytometry using with Annexin-V and DAPI stainings (both from Becton Dickinson) according to CD73 and MDR1 expression. The percentage of viable cells (Annexin V^neg DAPI^neg) was compared according to the cell subset analyzed.

[4] = tested on: PBMC-purified memory CD4+ Tconv; test: in vitro; conditions: 48 h
Protocol: as §1, §2

MDR1 = molecular target: T3, MDR1 (Homo sapiens, UniProt P08183); test: MDR1 functionality: Rhodamine 123 (Rhd123) efflux by flow cytometry; assay type: cell-based; conditions: HD-PBMC stained with Rhd123 (1 μg/ml); Elacridar 1 μM
T3 construct: After staining of HD-PBMC with Rhd123 we analyzed, by flow cytometry, cells endowed with Rhd123 efflux function; endogenous in cells
T3 sequence (P08183 whole entry): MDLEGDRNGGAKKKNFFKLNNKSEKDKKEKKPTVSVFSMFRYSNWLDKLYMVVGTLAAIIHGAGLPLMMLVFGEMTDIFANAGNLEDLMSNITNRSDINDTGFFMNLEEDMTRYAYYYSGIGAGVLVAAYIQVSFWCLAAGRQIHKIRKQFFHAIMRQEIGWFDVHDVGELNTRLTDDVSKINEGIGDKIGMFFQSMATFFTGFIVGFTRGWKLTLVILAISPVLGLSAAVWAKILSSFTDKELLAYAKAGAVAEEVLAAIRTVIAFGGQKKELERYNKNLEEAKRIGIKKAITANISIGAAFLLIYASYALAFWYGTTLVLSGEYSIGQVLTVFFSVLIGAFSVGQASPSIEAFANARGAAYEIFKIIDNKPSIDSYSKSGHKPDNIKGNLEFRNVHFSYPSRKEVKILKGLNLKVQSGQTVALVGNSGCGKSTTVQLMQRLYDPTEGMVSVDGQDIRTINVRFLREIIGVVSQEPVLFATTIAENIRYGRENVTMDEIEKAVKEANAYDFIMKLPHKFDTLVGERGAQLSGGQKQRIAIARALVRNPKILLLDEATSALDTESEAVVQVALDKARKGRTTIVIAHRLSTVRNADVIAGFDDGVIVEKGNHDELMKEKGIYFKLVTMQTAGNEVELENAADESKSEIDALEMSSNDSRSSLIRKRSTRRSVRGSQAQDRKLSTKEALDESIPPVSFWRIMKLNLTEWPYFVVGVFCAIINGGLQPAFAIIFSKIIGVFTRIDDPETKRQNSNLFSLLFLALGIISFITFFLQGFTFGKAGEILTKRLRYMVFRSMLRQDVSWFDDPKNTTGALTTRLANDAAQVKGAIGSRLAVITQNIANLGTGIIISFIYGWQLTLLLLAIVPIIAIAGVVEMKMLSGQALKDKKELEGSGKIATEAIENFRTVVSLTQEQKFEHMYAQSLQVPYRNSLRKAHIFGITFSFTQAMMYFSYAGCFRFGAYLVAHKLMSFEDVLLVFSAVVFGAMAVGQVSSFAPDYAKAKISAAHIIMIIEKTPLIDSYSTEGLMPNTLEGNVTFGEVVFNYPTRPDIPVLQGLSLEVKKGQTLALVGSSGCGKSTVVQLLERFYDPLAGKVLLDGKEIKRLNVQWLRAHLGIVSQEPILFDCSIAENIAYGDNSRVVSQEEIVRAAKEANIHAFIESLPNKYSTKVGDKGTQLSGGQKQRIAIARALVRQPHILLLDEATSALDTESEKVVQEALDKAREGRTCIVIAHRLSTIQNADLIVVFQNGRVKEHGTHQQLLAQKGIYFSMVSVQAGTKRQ
Protocol: (B, C) MDR1 functionality was assessed on CD73^+ and CD73^neg Tconv by their capacity to exclude Rhd123 (1 μg/ml) analyzed by flow cytometry. […] Frequency of Rhd123^neg cells was analyzed among CD73^+ (black) and CD73^neg (white) Tconv (D). Statistical analysis was performed by using Wilcoxon test.
Moreover, we took advantage of the physiological role of MDR1 in the efflux of specific fluorescent substrate like Rhodamine 123 (Rhd123). After staining of HD-PBMC with Rhd123 we analyzed, by flow cytometry, cells endowed with Rhd123 efflux function.

Molecule: Nivolumab: anti PD-1 antibody given to metastatic melanoma patients
- modulation of CD73 expression on CD4+ or CD8+ T cells ([1]; 11 patients, 3 mg/kg i.v. every 2 weeks, before (W0) and during treatment (W2, W12)): No significant modulation
- modulation of TIGIT expression ([1]; between W0 and W2, representative dot plot): increased

Molecule: CCN(CC)c1ncnc2c1ncn2[C@@H]1O[C@H](COP(=O)(O)OP(=O)(O)C(Br)(Br)P(=O)(O)O)[C@@H](O)[C@H]1O [ARL67156]
- effect on degradation of ATP into AMP by Treg (CD39): completely inhibited

Molecule: Nc1ncnc2c1ncn2[C@@H]1O[C@H](COP(=O)(O)CP(=O)(O)O)[C@@H](O)[C@H]1O [AMPCP]
- effect on hydrolysis of C13N15 AMP into Ado by CD73+ Tconv (CD73): reversed
- effect on AMP-induced inhibition of CD73+ Tconv proliferation (CD73+ or CD73neg Tconv [2]; added with AMP (150 μM final concentration)): reversion of inhibition
- effect on inhibition of CD73+ Tconv proliferation induced by Treg and ATP (CD73+ Tconv): reversed

Molecule: Nc1ncnc2c1ncn2[C@@H]1O[C@H](CO)[C@@H](O)[C@H]1O [Ado, adenosine]
- effect on proliferation of both subsets (CD73+ and CD73neg Tconv) (CD73+ or CD73neg Tconv [2]; metronomic addition 75 μM/day, 300 μM final concentration, 4 days): inhibited
- effect on IL-17A secretion by Tconv CD73+ (or CD73neg) (CD73+ or CD73neg Tconv [3]): not altered
- effect on IL-22 secretion (CD73+ or CD73neg Tconv [3]): slightly inhibited
- effect on secretion of the cytokines produced by CD73+ or CD73neg Tconv (CD73+ or CD73neg Tconv [3]): inhibited

Molecule: CC(=O)O[C@H]1C(=O)[C@@]2(C)[C@H]([C@H](OC(=O)c3ccccc3)[C@]3(O)C[C@H](OC(=O)[C@H](O)[C@@H](NC(=O)c4ccccc4)c4ccccc4)C(C)=C1C3(C)C)[C@]1(OC(C)=O)CO[C@@H]1C[C@@H]2O [Taxol]
- viability at 48 h, 1 µM (in vitro): 80%
- sensitivity to Taxol-induced apoptosis ([4]; CD73+MDR1neg subset, high Taxol doses): sensitive to apoptosis
- sensitivity to Taxol-induced apoptosis ([4]; CD73negMDR1neg population): highly sensitive

Molecule: Nc1ncnc2c1ncn2[C@@H]1O[C@H](COP(=O)(O)O)[C@@H](O)[C@H]1O [AMP]
- effect on proliferation of CD73+ Tconv (CD73+ or CD73neg Tconv [2]; metronomic addition, 150 μM final concentration, 4 days): inhibited

Molecule: COc1cc2c(cc1OC)CN(CCc1ccc(NC(=O)c3cccc4c(=O)c5cccc(OC)c5[nH]c34)cc1)CC2 [Elacridar]
- effect on Rhd123 efflux by Tconv (MDR1): completely abrogated

B1: rhADA: recombinant Adenosine Deaminase, inducing degradation of Ado into Ino (protein, UniProt P00813 2-363, looked up)
Adenosine deaminase: AQTPAFDKPKVELHVHLDGSIKPETILYYGRRRGIALPANTAEGLLNVIGMDKPLTLPDFLAKFDYYMPAIAGCREAIKRIAYEFVEMKAKEGVVYVEVRYSPHLLANSKVEPIPWNQAEGDLTPDEVVALVGQGLQEGERDFGVKARSILCCMRHQPNWSPKVVELCKKYQQQTVVAIDLAGDETIPGSSLLPGHVQAYQEAVKSGIHRTVHAGEVGSAEVVKEAVDILKTERLGHGYHTLEDQALYNRLRQENMHFEICPWSSYLTGAWKPDTEHAVIRLKNDQANYSLNTDDPLIFKSTLDTDYQMTKRDMGFTEEEFKRLNINAAKSSFLPEDEKRELLDLLYKAYGMPPSASAGQNL
- effect on Ado-inhibited proliferation of both T cell subsets (CD73+ or CD73neg Tconv [2]; rhADA 1 μg/ml added with exogenous Ado): restored
